Data set [1] in a line: Pharmacokinetic assay in Wistar rats, oral. Particulars: rat, 30 mg/kg.
Experimental: Experimental objective: to study the pharmacokinetic behaviours of the compounds of the present invention in the body (plasma) of Wistar rats as test animals after oral administration at a dose of 30 mg/kg. • 2. Experimental scheme • 2.1 Test drugs: the examples of the present invention, prepared in house. • 2.2 Test animals: Wistar rats (female, 3 rats per group), from Beijing Vital River Laboratory Animal Technology Co., Ltd., with the animal production license no.
Solutol HS15 was melted in a water bath at 50-60°C, and then 50 mL of the melted Solutol HS15 was added to 450 mL of ultrapure water. The mixture was stirred and sonicated to obtain 500 mL of 10% Solutol HS15 solution. The compound was weighed, and according to the total administration volume, 30% PEG solution was first added. The mixture was shaken uniformly and sonicated until a clear solution was obtained. Subsequently, 70% (10% Solutol) in water was added, resulting in a colourless and clear solution with a concentration of 3.0 mg/mL.
2.4 Administration scheme: After overnight fasting, 3 female Wistar rats per group were administered orally (PO) at a dose of 30 mg/kg with an administration volume of 10 mL/kg.
• 1) To 50 uL of plasma sample was added 250 uL of acetonitrile for precipitation, and the mixture was mixed and then centrifuged at 4°C at 4000 rpm for 20 minutes. • 2) The treated supernatant solution was taken and subjected to LC/MS/MS to analyse the concentration of the test compounds. LC/MS/MS analysis instrument: AB Sciex API-4000 Qtrap-Shimadzu Controller-CBM20A.
• Chromatographic column: Waters Xbridge C18 3.5 um 2.1*50 mm • Mobile phase: solution A: 0.1% formic acid in water, and solution B: 0.1% formic acid in acetonitrile • Flow rate: 0.6 mL/min • Elution time: 0-3.5 minutes, with eluents as follows:
Data set [2] relates to Groα secretion by HT-29 cells. The experiment in a line: Inhibition of Groα secretion by HT-29 cells stimulated with IL-17A (ELISA). The format is cell-based, Human. To be noted: Homo sapiens, IL-17A 30 ng/ml, Groα in supernatant. As to the method: Test example 2 Assay for inhibitory effect of compounds of the present invention against Groα secretion by HT-29 cells
Experimental objective: to measure the inhibitory effect of the compounds against Groα secretion by HT-29 cells, thereby evaluating the inhibition of the compounds on IL-17A pathway.
Experimental method: A cell suspension at 50,000 cells/ml was prepared, and 200 µl of the cell suspension was added to each well of a 96-well plate, i.e., 10,000 cells/well. The plate was cultured overnight. In the 96-well V-bottom plate, 5 mM compound solution was serially diluted 3-fold using DMSO, and the compound from each well was diluted 100-fold using a complete culture medium. IL-17A protein (R&D, #BT7955-025/CF) with a stock concentration of 100 µg/ml was diluted 333.33-fold using a complete culture medium. The compound and IL-17A were mixed at a volume ratio of 1:1 and incubated at 37°C for 30 minutes. 50 µl of a mixture of the compound and IL-17A was added to cell wells, and the final concentration of IL-17A protein was 30 ng/ml.
The mixture was incubated in a 37°C, 5% CO2 cell culture incubator for 48 hours. The concentration of Groα in the supernatant was determined by ELISA method using Human Groα Valukin Elisa kit (Biotechne, # VAL139), and the absorbance intensity at 450 nm was measured using a microplate reader (PE, EnVision2105). Data were analysed using GraphPad Prism 8.3.0.
Experimental data processing method: Data were analysed using GraphPad Prism 8.3.0.
Inhibition rate% = [(average value of positive control wells - value of sample wells)/(average value of positive control wells - average value of negative control wells)] × 100%, where the sample wells are wells containing cells plus compounds at different concentration gradients, the positive control wells are wells containing cells plus IL-17A, and the negative control wells are wells containing culture medium plus IL-17A.
Curve fitting: The IC50 value was obtained by curve fitting based on the inhibition rate (%) at each concentration using the log(inhibitor) vs. responseVariable slope (four parameters) in GraphPad Prism 6.0, and the calculation equation was Y = Bottom + (Top-Bottom)/(1+10^((LogIC50-X)*HillSlope)).

By AUC(0-t) is commonly meant the area under the concentration-time curve up to a stated or last time point. A low value points to less exposure. By Cmax is commonly meant the peak of the concentration-time curve. As a reminder, the Tmax is the time at which the peak concentration occurs. As a reminder, the half-life is the time in which the quantity being followed falls by half. What is called IC50 is the point on the concentration scale where inhibition reaches its midpoint.

On to `[2H]C([2H])([2H])C([2H])([2H])n1nccc1C(=O)NC(C(=O)Nc1ncc(C(COC)n2cc(Cl)ccc2=O)s1)C1CCC(C)CC1` (stereo not drawn) [Example 586], for which, in data set [1] (in vivo), the AUC(0-t) came out at 15300 ng·h/mL, the highest level (Cmax) was 1750 ng/mL, the Tmax worked out at 2 h and the half-life was 4.3 h. Also, the IC50 in data set [2] (HT-29, 48 h) stood at 8.1 nM.

Regarding `[2H]C([2H])([2H])C([2H])([2H])n1nccc1C(=O)NC(C(=O)Nc1ncc(C(COC)N2CC(F)(F)CCC2=O)s1)C1CCC(C)CC1` [Example 613, N-((S)-2-((5-((R)-1-(5,5-difluoro-2-carbonylpiperidin-1-yl)-2-methoxyethyl)thiazol-2-yl)amino)-1-((1r,4S)-4-methylcyclohexyl)-2-carbonylethyl)-1-(ethyl-d5)-1H-pyrazole-5-carboxamide], in data set [1] (plasma), the AUC(0-t) amounted to 21000 ng·h/mL, the concentration peaked (Cmax) at 3300 ng/mL, the Tmax stood at 2 h and the half-life is 2.6 h. For the same molecule, inhibition in data set [2] (48 hours) was half-maximal at 5.6 nM (IC50).

With `[2H]C([2H])([2H])C([2H])([2H])n1nccc1C(=O)N[C@H](C(=O)Nc1ncc([C@@H](CN2CCOCC2)N2CC(F)(F)CCC2=O)s1)[C@H]1CC[C@H](C)CC1` [Example 624, N-((S)-2-((5-((R)-1-(5,5-difluoro-2-oxopiperidin-1-yl)-2-morpholinoethyl)thiazol-2-yl)amino)-1-((1r,4S)-4-methylcyclohexyl)-2-oxoethyl)-1-(ethyl-d5)-1H-pyrazole-5-carboxamide], in data set [1] (plasma), the AUC(0-t) was found to be 11000 ng·h/mL, the peak level (Cmax) was 3400 ng/mL, the Tmax is 1 h and the half-life is 1 h. This molecule also came in with an IC50 in data set [2] (48 hours) of 4.3 nM.

In the case of `[2H]C([2H])([2H])C([2H])([2H])n1nccc1C(=O)N[C@H](C(=O)Nc1ncc([C@@H](CN2CCO[C@H](C)C2)N2CC(F)(F)CCC2=O)s1)[C@H]1CC[C@H](C)CC1` [Example 627, N-((S)-2-((5-((R)-1-(5,5-difluoro-2-oxopiperidin-1-yl)-2-((R)-2-methylmorpholino)ethyl)thiazol-2-yl)amino)-1-((1r,4S)-4-methylcyclohexyl)-2-oxoethyl)-1-(ethyl-d5)-1H-pyrazole-5-carboxamide], in data set [1] (plasma), the AUC(0-t) turned out to be 22100 ng·h/mL, the highest concentration (Cmax) was 2530 ng/mL, the Tmax is 4 h and the half-life is 3.2 h. This molecule also registered an IC50 in data set [2] (48 hours) of 6.3 nM.

As for `[2H]C([2H])([2H])C([2H])([2H])n1nccc1C(=O)N[C@H](C(=O)Nc1ncc([C@@H](CN2CCO[C@@H](C)C2)N2CC(F)(F)CCC2=O)s1)[C@H]1CC[C@H](C)CC1` [Example 628], in data set [1] (in vivo), the AUC(0-t) amounted to 20900 ng·h/mL, the Cmax stood at 2270 ng/mL, the Tmax was found to be 4 h and the half-life was 3.3 h. This molecule also gave an IC50 in data set [2] (48 hours) of 6.7 nM.

For `CCn1nccc1C(=O)N[C@H](C(=O)Nc1ncc([C@@H](CN2CCC(OC)CC2)N2CC(F)(F)CCC2=O)s1)[C@H]1CC[C@H](C)CC1` [Example 646], in data set [1] (in vivo), the AUC(0-t) worked out at 19800 ng·h/mL, the Cmax was 3830 ng/mL, the Tmax worked out at 2 h and the half-life is 2.4 h. In addition, the IC50 in data set [2] (HT-29, 48 h) was found to be 8 nM.

In the case of `C[C@H]1CC[C@H]([C@H](NC(=O)C2(F)CC2)C(=O)Nc2ncc([C@@H](CN3CCC(C(F)(F)F)CC3)N3CC(F)(F)CNC3=O)s2)CC1` [Example 774, N-((S)-2-((5-((R)-1-(5,5-difluoro-2-oxotetrahydropyrimidin-1(2H)-yl)-2-(4-(trifluoromethyl)piperidin-1-yl)ethyl)thiazol-2-yl)amino)-1-((1r,4S)-4-methylcyclohexyl)-2-oxoethyl)-1-fluorocyclopropane-1-carboxamide], in data set [1] (in vivo), the AUC(0-t) worked out at 24400 ng·h/mL, the highest level (Cmax) was 2310 ng/mL, the Tmax was 4 h and the half-life is 4.5 h. This molecule came in with an IC50 in data set [2] (HT-29, 48 h) of 5 nM.

Take `[2H]C([2H])([2H])C([2H])([2H])n1nccc1C(=O)N[C@H](C(=O)Nc1ncc([C@@H](CN2CCOC[C@@H]2C)N2CC(F)(F)CCC2=O)s1)[C@H]1CC[C@H](C)CC1` [Example 816]: in data set [1] (in vivo), the area under the curve AUC(0-t) was found to be 28400 ng·h/mL, the Cmax worked out at 2540 ng/mL, the Tmax stood at 4 h and the half-life is 3.8 h. In data set [2] (HT-29, 48 h), the IC50 worked out at 4.6 nM.

Consider `[2H]C([2H])([2H])C([2H])([2H])n1nccc1C(=O)NC(C(=O)Nc1ncc(C(CN2CCOCC2C)N2CC(F)(F)CCC2=O)s1)C1CCC(C)CC1` (stereo not drawn) [Example 818], for which, in data set [1] (in vivo), the AUC(0-t) was found to be 15500 ng·h/mL, the Cmax came to 2650 ng/mL, the Tmax was found to be 2 h and the half-life is 3.1 h. The IC50 in data set [2] (HT-29, 48 h) amounted to 2.6 nM.

On to `[2H]C([2H])([2H])C([2H])([2H])n1nccc1C(=O)N[C@H](C(=O)Nc1ncc([C@@H](CN2C[C@@H](C)O[C@@H](C)C2)N2CC(F)(F)CCC2=O)s1)[C@H]1CC[C@H](C)CC1` [Example 849, N-((S)-2-((5-((R)-1-(5,5-difluoro-2-oxopiperidin-1-yl)-2-((2R,6S)-2,6-dimethylmorpholino)ethyl)thiazol-2-yl)amino)-1-((1r,4S)-4-methylcyclohexyl)-2-oxoethyl)-1-(ethyl-d5)-1H-pyrazole-5-carboxamide], for which, in data set [1] (plasma), the AUC(0-t) amounted to 15500 ng·h/mL, the Cmax was 2480 ng/mL, the Tmax amounted to 2 h and the half-life is 2.8 h. Besides, in data set [2] (48 hours), inhibition was half-maximal at 4 nM (IC50).

Regarding `[2H]C([2H])([2H])C([2H])([2H])n1nccc1C(=O)N[C@H](C(=O)Nc1ncc([C@@H](CN2C[C@H](C)O[C@@H](C)C2)N2CC(F)(F)CCC2=O)s1)[C@H]1CC[C@H](C)CC1` [Example 854, N-((S)-2-((5-((R)-1-(5,5-difluoro-2-oxopiperidin-1-yl)-2-((2S,6S)-2,6-dimethylmorpholino)ethyl)thiazol-2-yl)amino)-1-((1r,4S)-4-methylcyclohexyl)-2-oxoethyl)-1-(ethyl-d5)-1H-pyrazole-5-carboxamide], in data set [1] (plasma), the AUC(0-t) turned out to be 14900 ng·h/mL, the Cmax is 2170 ng/mL, the Tmax worked out at 1 h and the half-life is 3 h. Moreover, the midpoint of inhibition in data set [2] (48 hours), the IC50, lay at 9 nM.

For `[2H]C([2H])([2H])C([2H])([2H])n1nccc1C(=O)N[C@H](C(=O)Nc1ncc([C@@H](CN2C[C@@H](C)O[C@H](C)C2)N2CC(F)(F)CCC2=O)s1)[C@H]1CC[C@H](C)CC1` [Example 857, N-((S)-2-((5-((R)-1-(5,5-difluoro-2-oxopiperidin-1-yl)-2-((2R,6R)-2,6-dimethylmorpholino)ethyl)thiazol-2-yl)amino)-1-((1r,4S)-4-methylcyclohexyl)-2-oxoethyl)-1-(ethyl-d5)-1H-pyrazole-5-carboxamide], in data set [1] (plasma), the AUC(0-t) is 15900 ng·h/mL, the Cmax stood at 2290 ng/mL, the Tmax turned out to be 2 h and the half-life was 3.5 h. The same molecule yielded a half-maximal inhibitory concentration (IC50) in data set [2] (48 hours) of 2.4 nM.

In turn, `CCn1nccc1C(=O)N[C@H](C(=O)Nc1ncc([C@@H](CN2CCC3(CC2)OCCO3)n2cc(Cl)ccc2=O)s1)[C@H]1CC[C@H](C)CC1` [Example 1020] showed a half-maximal inhibitory concentration (IC50) in data set [2] (HT-29, 48 h) of 2.5 nM.

The molecule `CCn1nccc1C(=O)N[C@H](C(=O)Nc1ncc([C@@H](CN2CCCCC2)N2CC(F)(F)CCC2=O)s1)[C@H]1CC[C@H](C)CC1` [Example 1021] registered an IC50 in data set [2] (HT-29, 48 h) of 8.5 nM.

In turn, `CCn1nccc1C(=O)N[C@H](C(=O)Nc1ncc([C@@H](CN2CCCC2)N2CC(F)(F)CCC2=O)s1)[C@H]1CC[C@H](C)CC1` [Example 1022] came in with an IC50 in data set [2] (HT-29, 48 h) of 10 nM.

As to `CCn1nccc1C(=O)N[C@H](C(=O)Nc1ncc([C@@H](CN(C)CCOC)N2CC(F)(F)CCC2=O)s1)[C@H]1CC[C@H](C)CC1` [Example 1023], in data set [2] (HT-29, 48 h), it took 10 nM to reach half-maximal inhibition (IC50). In other words, the double-digit nanomolar range.

As for `COCCN(C)C[C@H](c1cnc(NC(=O)[C@@H](NC(=O)c2ccnn2C)[C@H]2CC[C@H](C)CC2)s1)N1CC(F)(F)CCC1=O` [Example 1024], the IC50 in data set [2] (HT-29, 48 h) worked out at 7 nM.

Molecule `[2H]C([2H])([2H])n1nccc1C(=O)N[C@H](C(=O)Nc1ncc([C@@H](CN2CCOCC2)N2CC(F)(F)CCC2=O)s1)[C@H]1CC[C@H](C)CC1` [Example 1030] gave an IC50 in data set [2] (HT-29, 48 h) of 7 nM.

As to `[2H]C([2H])([2H])n1nccc1C(=O)N[C@H](C(=O)Nc1ncc([C@@H](CN2CCC3(COC3)C2)N2CC(F)(F)CCC2=O)s1)[C@H]1CC[C@H](C)CC1` [Example 1032], it took 8 nM to reach half-maximal inhibition in data set [2] (HT-29, 48 h) (IC50).

The molecule `[2H]C([2H])([2H])C([2H])([2H])n1nccc1C(=O)N[C@H](C(=O)Nc1ncc([C@@H](CN2CCC3(CCOC3)CC2)N2CC(F)(F)CCC2=O)s1)[C@H]1CC[C@H](C)CC1` [Example 1034] showed an IC50 in data set [2] (HT-29, 48 h) of 6 nM. The IC50 values of the last two molecules are within 1.5-fold of each other.

In turn, `CCn1nccc1C(=O)N[C@H](C(=O)Nc1ncc([C@@H](CN2CCC(COC)CC2)N2CC(F)(F)CCC2=O)s1)[C@H]1CC[C@H](C)CC1` [Example 1036] displayed an IC50 in data set [2] (HT-29, 48 h) of 6 nM.

Source of the values: patent publication EP4711365A1 (Shanghai Hansoh Biomedical Co., Ltd., priority 2023, dated 2024).
